The subject of assay [1] is HL-60. The experiment in a line: Tested for the ability to traverse cell membranes and to alter ratio of AdoMet to S-adenosyl-homocysteine (AdoHcy) in HL60 human promyelocytic leukemia cells. It is filed as functional, cell-based.
The test system of assay [2] is Trypanosoma brucei. The experiment in a line: Tested for antitrypanosomal activity against blood forms of Trypanosoma uM concentration. Format: functional.
Assay [3] relates to HT-29. The experiment in a line: Tested for the ability to traverse cell membranes and to alter ratio of AdoMet to S-adenosyl-homocysteine (AdoHcy) in HT-29 human colon carcinoma; IA means inactive. It is filed as functional, cell-based.
In assay [4] the test system is L1210. The experiment in a line: Tested for the ability to traverse cell membranes and to alter ratio of AdoMet to S-adenosyl-homocysteine (AdoHcy) in L1210 murine lymphocytic leukemia cells; IA means inactive. It is filed as functional, cell-based, Mus musculus.

Data on seven compounds can be found in ChEMBL document CHEMBL1127176, “Restricted rotation analogs of S-adenosylmethionine: synthesis, evaluation as inhibitors of S-adenosylmethionine decarboxylase, and potential use as selective antitrypanosomal agents” (Bioorg Med Chem Lett, 1993).

Regarding `C[S+](C[C@H]1O[C@@H](n2cnc3c(N)ncnc32)[C@H](O)[C@@H]1O)C1CN[C@H](C(=O)O)C1.O=S(=O)(O)O.O=S(=O)([O-])O` (stereo partly drawn), the IC50 in assay [1] was over 1000 µM. The Inhibition in assay [2] is on record as 64%.

`Nc1ncnc2c1ncn2[C@@H]1O[C@H](CSC2CCNC2)[C@@H](O)[C@H]1O.O=S(=O)(O)O` (stereo partly drawn) returned an Inhibition in assay [2] of 40%.

`Nc1ncnc2c1ncn2[C@@H]1O[C@H](CS[C@H]2CN[C@H](C(=O)O)C2)[C@@H](O)[C@H]1O.O=S(=O)(O)O`: the half-inhibitory concentration (IC50) in assay [1] was over 1000 µM. The same compound gave an Inhibition in assay [2] of 41%.

As to `C[S+](C[C@H]1O[C@@H](n2cnc3c(N)ncnc32)[C@H](O)[C@@H]1O)[C@H]1CN[C@H](C(=O)O)C1.O=S(=O)(O)O.O=S(=O)([O-])O` (stereo partly drawn), in assay [1], the IC50 was over 1000 µM. In assay [2], this compound came in with an Inhibition of 34%.

Take `Nc1ncnc2c1ncn2[C@@H]1O[C@H](CS[C@@H]2CN[C@H](C(=O)O)C2)[C@@H](O)[C@H]1O.O=S(=O)(O)O`: the IC50 in assay [1] was over 1000 µM. The compound also gave an Inhibition in assay [2] of 30%.

`C[S+](C[C@H]1O[C@@H](n2cnc3c(N)ncnc32)[C@H](O)[C@@H]1O)C1CCNC1.O=S(=O)(O)O.O=S(=O)([O-])O` (stereo partly drawn) returned an Inhibition in assay [2] of 49%.

As for `C[S+](C[C@H]1O[C@@H](n2cnc3c(N)ncnc32)[C@H](O)[C@@H]1O)C1C=C[C@H](N)C1.O=S(=O)(O)O.O=S(=O)([O-])O` (stereo partly drawn), the IC50 entry in assay [3] and in assay [4] was “Not Active” each time. The same compound had an Inhibition in assay [2] of 50%.

By IC50 is commonly meant the concentration that gives 50% inhibition. A word on the Inhibition: it is how much of the control response was suppressed.
